Laboratory results: patent publication US12655116B2, “Substituted isophthalic acid diamides” (Bayer Aktiengesellschaft, priority 2020, dated 2026)

Experiments:
[1] = tested on: POLCO; experiment: Pre-emergence herbicidal action against POLCO; format: in vivo, Polygonum convolvulus
Description: Seeds of monocotyledonous and dicotyledonous weed plants and crop plants are laid out in sandy loam soil in wood-fiber pots and covered with soil. The compounds of the invention, formulated in the form of wettable powders (WP) or as emulsion concentrates (EC), are then applied to the surface of the covering soil in the form of an aqueous suspension or emulsion at a water application rate equivalent to 600 to 800 l/ha, with addition of 0.2% wetting agent. After the treatment, the pots are placed in a greenhouse and kept under good growth conditions for the trial plants. The damage to the test plants is scored visually after a test period of 3 weeks by comparison with untreated controls (herbicidal activity in percent (%): 100% activity=the plants have died, 0% activity=like control plants). […] The tables below illustrate, in an illustrative manner, the post-emergence herbicidal action of the compounds of the invention, the herbicidal activity being stated in percent.

[2] = tested on: AMARE; experiment: Pre-emergence herbicidal action against AMARE; format: in vivo, Amaranthus retroflexus
Procedure, shortened: (§1)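 Seeds sown in sandy loam, soil-covered; compound sprayed on soil surface pre-emergence. Application: WP/EC, 600–800 l/ha, 0.2% wetting agent. Readout: visual % damage at 3 weeks.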

[3] = tested on: MATIN; experiment: Pre-emergence herbicidal action against MATIN; format: in vivo, Matricaria inodora; conditions: dosage 80 g/ha
Procedure, shortened: as §1

[4] = tested on: VERPE; experiment: Pre-emergence herbicidal action against VERPE; format: in vivo, Veronica persica; conditions: dosage 80 g/ha
Procedure, shortened: as §1

[5] = tested on: ECHCG; experiment: Pre-emergence herbicidal action against ECHCG; format: in vivo, Echinochloa crus-galli; conditions: 80 g/ha
Procedure, shortened: as §1

[6] = tested on: VIOTR; experiment: Pre-emergence herbicidal action against VIOTR; format: in vivo, Viola tricolor; conditions: dosage 80 g/ha
Procedure, shortened: as §1

[7] = tested on: PHBPU; experiment: Post-emergence herbicidal action against PHBPU; format: in vivo, Pharbitis purpurea; conditions: dosage 20 g/ha
Procedure, shortened: (§2)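 Sandy loam, greenhouse; treatment 2–3 weeks after sowing, one-leaf stage. Aqueous suspension or emulsion from WP/EC sprayed on foliage (600–800 l/ha, 0.2% wetting agent). Readout: visual % action, ~3 weeks.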

[8] = tested on: DIGSA; experiment: Pre-emergence herbicidal action against DIGSA; format: in vivo, Digitaria sanguinalis
Procedure, shortened: as §1

[9] = tested on: AMARE; experiment: Post-emergence herbicidal action against AMARE; format: in vivo, Amaranthus retroflexus; conditions: 20 g/ha, visual assessment about 3 weeks after treatment, 100% = plants have died, 0% = like control plants
Procedure, shortened: as §2

[10] = tested on: ECHCG; experiment: Post-emergence herbicidal action against ECHCG; format: in vivo, Echinochloa crus-galli
Procedure, shortened: as §2

[11] = tested on: ABUTH; experiment: Pre-emergence herbicidal action against ABUTH; format: in vivo, Abutilon theophrasti; conditions: 80 g/ha, scored visually after 3 weeks vs untreated controls (100% = plants have died, 0% = like control plants)
Procedure, shortened: as §1

[12] = tested on: SETVI; experiment: Pre-emergence herbicidal action against SETVI; format: in vivo, Setaria viridis; conditions: dosage 80 g/ha
Procedure, shortened: as §1

[13] = tested on: ABUTH; experiment: Post-emergence herbicidal action against ABUTH; format: in vivo, Abutilon theophrasti; conditions: dosage 20 g/ha, visual assessment about 3 weeks after treatment vs untreated controls
Procedure, shortened: as §2

[14] = tested on: SETVI; experiment: Post-emergence herbicidal action against SETVI; format: in vivo, Setaria viridis; conditions: dosage 20 g/ha
Procedure, shortened: as §2

[15] = 80 g/ha, scored visually after 3 weeks vs untreated controls (100% = plants have died, 0% = like control plants)
[16] = 20 g/ha, scored visually after 3 weeks vs untreated controls, 100% = plants have died, 0% = like control plants

Row | SMILES | Pre-emergence action against POLCO in % ([1]; dosage 80 g/ha) [%] | Pre-emergence action against AMARE in % [2, 15] [%] | Pre-emergence action against MATIN in % [3] [%] | Pre-emergence action against VERPE in % [4] [%] | Pre-emergence action against ECHCG in % [5] [%] | Pre-emergence action against POLCO in % ([1]; dosage 20 g/ha) [%] | Pre-emergence action against AMARE in % [2, 16] [%] | Pre-emergence action against VIOTR in % [6] [%] | Post-emergence action against PHBPU in % [7] [%] | Pre-emergence action against DIGSA in % ([8]; dosage 80 g/ha) [%] | Post-emergence action at 20 g/ha against AMARE in % [9] [%] | Post-emergence action against ECHCG in % ([10]; dosage 5 g/ha) [%] | Post-emergence action against ECHCG in % ([10]; dosage 20 g/ha) [%] | Pre-emergence action against ABUTH (herbicidal activity) [11] [%] | Pre-emergence action against SETVI in % [12] [%] | Post-emergence action against ABUTH in % [13] [%] | Post-emergence action against SETVI in % [14] [%] | Pre-emergence action against DIGSA in % ([8]; dosage 20 g/ha) [%]
1 | CCn1nnnc1NC(=O)c1ccc(C(F)(F)F)c(C(=O)NCCSC)c1C [Example 2-35] | 80 | 90 | 80 |  |  |  |  |  |  |  |  |  |  |  |  |  |  | 
2 | CCn1nnnc1NC(=O)c1ccc(C(F)(F)F)c(C(=O)NCc2cccs2)c1Cl [Example 2-144] | 90 | 100 | 90 | 100 | 80 | 80 | 80 | 90 | 80 | 100 |  |  |  |  |  |  |  | 
3 | Cc1nnc(NC(=O)c2ccc(C(F)F)c(C(=O)NC3CC3)c2Br)o1 [Example 6-166] | 80 | 100 | 100 |  | 80 |  | 90 | 100 |  | 100 | 90 | 80 | 90 | 100 | 100 | 80 | 100 | 80
4 | Cc1nnc(NC(=O)c2ccc(C(F)F)c(C(=O)NCC(F)F)c2Br)o1 [Example 6-169] | 100 | 100 | 80 |  | 90 |  | 90 |  |  | 90 | 90 | 80 | 90 | 90 | 100 |  | 90 | 
